Patent US20160340334A1, “METHOD FOR ISOLATION OF ALKALOIDS AND AMINO ACIDS, AND CO[…] ALKALOIDS AND AMINO ACIDS” (priority 2015, published 2016)

Experiments:
[1] = test system: migraine; conditions: tryptophan administered in the form of 5-HTP; cited from earlier work
[2] = nicotine after extraction (Example 1); clinical studies
[3] = test system: models of Parkinson's disease; conditions: intermittent nicotine treatment; cited from earlier work

| SMILES | aborting or significantly mitigating pain after onset of a migraine [1] | effect in migraine prevention [1] | side effects on use for treatment [2] | reduction of medication-induced dyskinesias [3] |
| --- | --- | --- | --- | --- |
| N[C@@H](Cc1c[nH]c2ccc(O)cc12)C(=O)O [5-HTP, 5-Hydroxytryptophan] | ineffective | only moderate effects | – | – |
| CN1CCCC1c1cccnc1 (stereo not shown) [nicotine] | – | – | without side effects such as tachyphylaxis | ≤ 50% |
